These results are taken from PubChem BioAssay AID256 (DTP/NCI, 2004).

This assay deals with CD2F1 mice, L1210 leukemia ip, survival T/C. The experiment in a line: NCI In Vivo Anticancer Drug Screen. Data for tumor model L1210 Leukemia (intraperitoneal) in CD2F1 (CDF1) mice. Conditions: higher = longer survival. The essentials:
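Ratio T/C, where T is the treated-group value and C the vehicle-dosed control value, from mice implanted with a transplantable tumor.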

Where [1] appears, read: endpoint: mean survival time, dose: 100.0 mg/kg/injection, schedule: Q04DX003 (ip), vehicle: saline with Tween-80.
Where [2] appears, read: endpoint: mean survival time, dose: 200.0 mg/kg/injection, schedule: Q04DX003 (ip), vehicle: saline with Tween-80.
The mark [3] stands for this setting: endpoint: mean survival time, dose: 400.0 mg/kg/injection, schedule: Q04DX003 (ip), vehicle: saline with Tween-80.
Where [4] appears, read: endpoint: mean survival time, dose: 100.0 mg/kg/injection, schedule: Q01DX009 (ip), vehicle: saline with Tween-80.
Setting [5] is: endpoint: mean survival time, dose: 200.0 mg/kg/injection, schedule: Q01DX009 (ip), vehicle: saline with Tween-80.
Setting [6] is: endpoint: mean survival time, dose: 400.0 mg/kg/injection, schedule: Q01DX009 (ip), vehicle: saline with Tween-80.
[7] abbreviates: endpoint: mean survival time, dose: 100.0 mg/kg/injection, schedule: Q01DX009 (ip), vehicle: Klucel (hydroxypropylcellulose) (HPC).
[8] abbreviates: endpoint: mean survival time, dose: 200.0 mg/kg/injection, schedule: Q01DX009 (ip), vehicle: Klucel (hydroxypropylcellulose) (HPC).
Setting [9] is: endpoint: mean survival time, dose: 100.0 mg/kg/injection, schedule: Q01DX001 (ip), vehicle: saline with Tween-80.
Where [10] appears, read: endpoint: mean survival time, dose: 200.0 mg/kg/injection, schedule: Q01DX001 (ip), vehicle: saline with Tween-80.
The mark [11] stands for this setting: endpoint: mean survival time, dose: 400.0 mg/kg/injection, schedule: Q01DX001 (ip), vehicle: saline with Tween-80.

Where “and” joins values, the source holds several entries; their conditions need not be identical. Equal values may be shown once. Inconclusive results and toxic doses are left out. Non-standard residues stand in square brackets, D forms with d. Residues, ends and D or L forms follow the SMILES beside them. ξ: configuration not given here. *: point of attachment. Bz = O=C(c1ccccc1)*; Bn = c1ccc(C*)cc1; ξC = NC(CS)C(=O)O

Regarding `O=C(O)/C=C/C(=O)NC1CCCCC1`, the T/C reads like this: under setting [1], 97 % of control and 101 % of control; under setting [2], 101 % of control and 97 % of control; under setting [3], 98 % of control and 95 % of control.
With `C=CN1C(=O)NC(C)(CC(C)C)C1=O` (stereo unspecified), the T/C under setting [1] was 94 % of control, the T/C under setting [2] was 92 % of control and the T/C under setting [3] is 102 % of control.
For the molecule `CCC(C)(C)C1=C(N=[N+]=[N-])C(=O)C(C(C)(C)CC)=C(N=[N+]=[N-])C1=O`, the T/C runs as follows: (endpoint: mean survival time, dose: 100.0 mg/kg/injection, schedule: Q01DX001 (ip), vehicle: other) 100 % of control; (endpoint: mean survival time, dose: 200.0 mg/kg/injection, schedule: Q01DX001 (ip), vehicle: other) 96 % of control; (endpoint: mean survival time, dose: 400.0 mg/kg/injection, schedule: Q01DX001 (ip), vehicle: other) 103 % of control.
Consider `COC(=O)C1CCCCCC1=O` (stereo unspecified), for which the T/C is, setting by setting: under setting [1], 96 % of control; under setting [2], 94 % of control; under setting [3], 88 % of control.
Regarding `C=CC(=O)NC(C)(C)CC(C)(C)C`, the T/C is 105 % of control under setting [4], 92 % of control under setting [1], 102 % of control under setting [2] and 96 % of control under setting [3].
`CCOC(OCC)c1nc(N)nc(N)c1-c1ccc(Cl)c(Cl)c1`: the T/C is 123 % of control (endpoint: mean survival time, dose: 134.0 mg/kg/injection, schedule: Q01DX009 (ip), vehicle: other); 111 % of control (endpoint: mean survival time, dose: 200.0 mg/kg/injection, schedule: Q01DX009 (ip), vehicle: other); 88 % of control (endpoint: mean survival time, dose: 300.0 mg/kg/injection, schedule: Q01DX009 (ip), vehicle: other).
In the case of `O=C(CNC(=O)NCc1ccco1)NNC(=O)Nc1ccc(Cl)c([N+](=O)[O-])c1`, the T/C under setting [4] was 94 % of control, the T/C under setting [5] was 87 % of control and the T/C under setting [6] was 91 % of control.
Consider `O=C(O)C[N-]CC[N-]CC(=O)O.[Cl][Pt+2][Cl]`, for which the T/C is 101 % of control (endpoint: mean survival time, dose: 6.25 mg/kg/injection, schedule: Q04DX003 (ip), vehicle: other); 100 % of control (endpoint: mean survival time, dose: 12.5 mg/kg/injection, schedule: Q04DX003 (ip), vehicle: other); 104 % of control (endpoint: mean survival time, dose: 25.0 mg/kg/injection, schedule: Q04DX003 (ip), vehicle: other); 109 % of control (endpoint: mean survival time, dose: 50.0 mg/kg/injection, schedule: Q04DX003 (ip), vehicle: other).
On to `Nc1ccc(I)cc1F`, for which the T/C by setting is: under setting [1], 100 % of control; under setting [2], 104 % of control; under setting [3], 100 % of control.
Take `O=C1Nc2ccccc2C(=O)Nc2ccccc21`: the T/C under setting [7] was 93 % of control and the T/C under setting [8] is 89 % of control.
In the case of `Cc1cc(C)c(C)c(C(O)(C(=O)O)c2ccccc2)c1` (stereo unspecified), the T/C reads like this: under setting [4], 100 % of control; under setting [1], 97 % of control; under setting [5], 88 % of control; under setting [2], 101 % of control; under setting [6], 96 % of control; under setting [3], 92 % of control.
For `CC/C=N/NC(N)=S`, the T/C is 98 % of control (endpoint: mean survival time, dose: 5.0 mg/kg/injection, schedule: Q01DX001 (ip), vehicle: saline); 102 % of control (endpoint: mean survival time, dose: 10.0 mg/kg/injection, schedule: Q01DX001 (ip), vehicle: saline); 106 % of control (endpoint: mean survival time, dose: 20.0 mg/kg/injection, schedule: Q01DX001 (ip), vehicle: saline).
Regarding `N#CC(c1ccccc1)C(CC(=O)c1ccccc1)c1ccccc1` (stereo unspecified), the T/C under setting [4] is 88 % of control; the T/C under setting [1] was 100 % of control; the T/C under setting [5] is 88 % of control; the T/C under setting [2] was 96 % of control; the T/C under setting [3] is 103 % of control.
On to `CC(=O)Nc1ccccc1[N+](=O)[O-]`, for which the T/C by setting is: under setting [9], 103 % of control; under setting [10], 101 % of control; under setting [11], 103 % of control.
On to `COC(=O)C(CSCc1ccccc1)NC(=O)CNC(=O)c1ccccc1` (stereo unspecified) (Bz-Gly-[ξC](Bn)-OMe), for which the T/C by setting is: under setting [9], 98 % of control; under setting [4], 91 % of control; under setting [10], 93 % of control; under setting [5], 94 % of control; under setting [11], 97 % of control; under setting [6], 91 % of control.
`COc1ccc(NCCOc2ccccc2Br)cc1`: the T/C was 97 % of control (endpoint: mean survival time, dose: 100.0 mg/kg/injection, schedule: Q04DX003 (ip), vehicle: other); 101 % of control (endpoint: mean survival time, dose: 200.0 mg/kg/injection, schedule: Q04DX003 (ip), vehicle: other); 95 % of control (endpoint: mean survival time, dose: 400.0 mg/kg/injection, schedule: Q04DX003 (ip), vehicle: other).
As to `CCO/C=C1\SC(=S)N(c2ccccc2OC)C1=O`, the T/C by setting is: under setting [1], 107 % of control; under setting [2], 102 % of control; under setting [3], 107 % of control.
Take `O=[N+]([O-])c1ccc(/C=C/C=C/c2ccc(Cl)c(S(=O)(=O)F)c2)c(Cl)c1`: the T/C under setting [4] was 97 % of control; the T/C under setting [1] is 102 % of control; the T/C under setting [5] is 103 % of control; the T/C under setting [2] was 102 % of control; the T/C under setting [6] is 106 % of control; the T/C under setting [3] is 102 % of control.
`CN1CCN(c2ccc3nc(-c4ccc5nc(-c6ccc(O)cc6)[nH]c5c4)[nH]c3c2)CC1`: the T/C is 124 % of control (endpoint: mean survival time, dose: 6.25 mg/kg/injection, schedule: Q01DX009 (ip), vehicle: saline); 124 % of control (endpoint: mean survival time, dose: 12.5 mg/kg/injection, schedule: Q01DX009 (ip), vehicle: saline); 183 % of control (endpoint: mean survival time, dose: 25.0 mg/kg/injection, schedule: Q01DX009 (ip), vehicle: saline); 238 % of control and 314 % of control (endpoint: mean survival time, dose: 50.0 mg/kg/injection, schedule: Q01DX009 (ip), vehicle: saline); 294 % of control (endpoint: mean survival time, dose: 100.0 mg/kg/injection, schedule: Q01DX009 (ip), vehicle: saline); 124 % of control (endpoint: median survival time, dose: 6.25 mg/kg/injection, schedule: Q01DX009 (ip), vehicle: saline). In addition, the T/C is, setting by setting: (endpoint: median survival time, dose: 12.5 mg/kg/injection, schedule: Q01DX009 (ip), vehicle: saline) 117 % of control and 120 % of control; (endpoint: median survival time, dose: 18.0 mg/kg/injection, schedule: Q01DX005 (ip), vehicle: saline) 119 % of control; (endpoint: median survival time, dose: 18.0 mg/kg/injection, schedule: Q01DX005 (iv), vehicle: saline) 116 % of control; (endpoint: median survival time, dose: 37.0 mg/kg/injection, schedule: Q01DX005 (iv), vehicle: saline) 115 % of control; (endpoint: median survival time, dose: 50.0 mg/kg/injection, schedule: Q01DX005 (oral), vehicle: saline) 101 % of control; (endpoint: median survival time, dose: 50.0 mg/kg/injection, schedule: Q01DX009 (ip), vehicle: saline) 226 % of control and 344 % of control. The T/C (endpoint: median survival time, dose: 75.0 mg/kg/injection, schedule: Q01DX005 (ip), vehicle: saline) is 151 % of control; the T/C (endpoint: median survival time, dose: 100.0 mg/kg/injection, schedule: Q01DX005 (oral), vehicle: saline) is 96 % of control; the T/C (endpoint: median survival time, dose: 150.0 mg/kg/injection, schedule: Q01DX005 (ip), vehicle: saline) was 348 % of control; the T/C (endpoint: median survival time, dose: 200.0 mg/kg/injection, schedule: Q01DX005 (oral), vehicle: saline) was 94 % of control; the T/C (endpoint: median survival time, dose: 200.0 mg/kg/injection, schedule: Q01DX009 (ip), vehicle: saline) was 116 % of control and 91 % of control; the T/C (endpoint: median survival time, dose: 400.0 mg/kg/injection, schedule: Q01DX005 (oral), vehicle: saline) is 96 % of control. Also, for the setting “endpoint: median survival time, dose: 800.0 mg/kg/injection, schedule: Q01DX005 (oral), vehicle: saline”, the T/C is 94 % of control.
On to `NC(CSC(c1ccccc1)(c1ccccc1)c1ccc(CBr)cc1)C(=O)O` (stereo unspecified), for which the T/C was 107 % of control (endpoint: mean survival time, dose: 12.5 mg/kg/injection, schedule: Q01DX009 (ip), vehicle: other); 107 % of control (endpoint: mean survival time, dose: 25.0 mg/kg/injection, schedule: Q01DX009 (ip), vehicle: other); 109 % of control (endpoint: mean survival time, dose: 50.0 mg/kg/injection, schedule: Q01DX009 (ip), vehicle: other); 115 % of control (endpoint: mean survival time, dose: 100.0 mg/kg/injection, schedule: Q01DX009 (ip), vehicle: other); 164 % of control (endpoint: mean survival time, dose: 400.0 mg/kg/injection, schedule: Q01DX009 (ip), vehicle: other).
For the molecule `CCOc1ccc(/C=C(/C#N)C(N)=O)cc1`, the T/C (endpoint: mean survival time, dose: 50.0 mg/kg/injection, schedule: Q04DX003 (ip), vehicle: saline with Tween-80) is 97 % of control; the T/C under setting [1] was 94 % of control; the T/C under setting [2] was 92 % of control.
Take `Cc1ccc([N+](=O)[O-])cc1NC(=O)Nc1ncccn1`: the T/C is 93 % of control (endpoint: mean survival time, dose: 50.0 mg/kg/injection, schedule: Q01DX009 (ip), vehicle: Klucel (hydroxypropylcellulose) (HPC)); 96 % of control under setting [7]; 93 % of control under setting [8].
